Assay results as given in patent publication US20250250230A1, “HETEROCYCLIC COMPOUND” (TAKEDA PHARMACEUTICAL COMPANY LIMITED, priority 2022, published 2025).

What was measured:
[1] = biological target: T1, human orexin type 2 receptor (Homo sapiens, UniProt O43614); assay: Measurement of orexin type 2 receptor agonist activity (calcium fluorescence, Fluo-4 AM, FDSS); assay type: cell-based; conditions: test compound 3 μM; CHO cells expressing human OX2 receptor; DMSO = 0%, orexin A (human) = 100%
T1 construct: expressed in transfected cells
T1 sequence (O43614 1-444): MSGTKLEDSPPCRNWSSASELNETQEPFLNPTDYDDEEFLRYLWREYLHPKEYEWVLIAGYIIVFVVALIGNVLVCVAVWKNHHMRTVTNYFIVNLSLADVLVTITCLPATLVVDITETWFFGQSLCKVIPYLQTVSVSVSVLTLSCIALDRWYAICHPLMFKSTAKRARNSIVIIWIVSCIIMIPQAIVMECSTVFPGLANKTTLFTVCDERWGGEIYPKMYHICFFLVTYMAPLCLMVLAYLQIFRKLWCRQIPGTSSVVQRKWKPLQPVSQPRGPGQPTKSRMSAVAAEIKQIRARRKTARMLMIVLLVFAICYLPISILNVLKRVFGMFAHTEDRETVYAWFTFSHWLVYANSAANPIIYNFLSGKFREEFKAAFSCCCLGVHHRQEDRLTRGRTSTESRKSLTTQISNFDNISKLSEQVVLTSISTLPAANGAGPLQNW
Method in brief: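 Agonist response scaled between vehicle (0%) and human orexin A at 10 nM final (100%), from 2-min kinetic Fluo-4 fluorescence reads. Stable hOX2R CHO-K1 clone, dye-loaded in HBSS/20 mM HEPES/0.1% BSA with 1.25 mM probenecid before compound addition.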

cynomolgus monkeys = assay: Evaluation of wake-promoting effects in cynomolgus monkeys (EEG/EMG); assay type: in vivo, cynomolgus monkey; conditions: 10 mg/kg p.o. at ZT12, time spent in wakefulness for 4 h after administration, male cynomolgus monkeys, n=2
Procedure: The wake-promoting effects were evaluated by measuring the electroencephalogram (EEG) and electromyogram (EMG) in cynomolgus monkeys. Under isoflurane anesthesia (0.5-5%, Pfizer Japan Inc., Tokyo, Japan), male cynomolgus monkeys (2-3 years old, Hamri Co., Ltd., Ibaraki, Japan) were surgically implanted with radio-telemetry transmitters (L03-F3, Data Sciences International Inc., MN, USA). EEG electrodes were screwed into the skull at the parietal area. EMG electrodes were implanted on the cervical muscles. After the surgery, each monkey was given penicillin (100,000 units/head, i.m., Meiji Seika Pharma Co., Ltd., Tokyo, Japan), buprenorphine (0.02 mg/kg, i.m., Otsuka Pharmaceutical Co., Ltd., Tokyo, Japan) and prednisolone (1 mg/kg, s.c., Kyoritsu Seiyaku Co., Ltd., Tokyo, Japan) daily for one week. After at least a 1-month recovery period in home cages, the monkeys were habituated to the recording chamber placed in a soundproof room. EEG and EMG signals were recorded using the telemetry system (Ponemah software, Data Sciences International Inc., MN, USA) and the signals were analyzed using SleepSign software (Kissei Comtec Co., Ltd., Nagano, Japan). After confirming long sleep in dark phase in the experimental room, we used animals to examine the wake-promoting effect of compounds. Test compounds (10 mg/kg) suspended in 0.5% methylcellulose aqueous solution, or vehicle (i.e., 0.5% methylcellulose aqueous solution) was administered orally (p.o.) to monkeys at zeitgeber time 12 (ZT12) in a volume of 5 mL/kg body weight in pre-post design (n=2). EEG and EMG recordings were performed for 4 h after the compound administration. The time spent in wakefulness for 4 h after administration (% of vehicle treatment) was calculated by using SleepSign.

| Compound | OX2R agonist activity (3 μM, %) [1] [%] | Wakefulness time (% of vehicle treatment) (Mean) (cynomolgus monkeys) |
| --- | --- | --- |
| C[C@H](NS(C)(=O)=O)[C@@H]1CCN1C(=O)[C@@H]1C[C@@]1(F)c1ccccc1-c1c(F)cccc1F [Example 353, N-[(1S)-1-{(2S)-1-[(1S,2S)-2-(2′,6′-difluoro [1,1′-biphenyl]-2-yl)-2-fluorocyclopropane-1-carbonyl]azetidin-2-yl}ethyl]methanesulfonamide] | 102 | 397.50 % of vehicle treatment |
| CNS(=O)(=O)NC[C@@H]1[C@H](F)CN1C(=O)[C@@H]1C[C@@]1(F)c1ccc(F)cc1-c1c(F)cccc1F [Example 423, N-({(2R,3R)-3-fluoro-1-[(1S,2S)-2-fluoro-2-(2′,5,6′-trifluoro[1,1′-biphenyl]-2-yl)cyclopropane-1-carbonyl]azetidin-2-yl}methyl)-N′-methylsulfuric Diamide] | 102 | 391.59 % of vehicle treatment |
| CCS(=O)(=O)NC[C@@H]1[C@H](F)CN1C(=O)[C@@H]1C[C@@]1(F)c1ccc(F)cc1-c1c(F)cccc1F [Example 412, N-({(2R,3R)-3-fluoro-1-[(1S,2S)-2-fluoro-2-(2′,5,6′-trifluoro[1,1′-biphenyl]-2-yl)cyclopropane-1-carbonyl]azetidin-2-yl}methyl)ethanesulfonamide] | 111 | 573.33 % of vehicle treatment |
| CCS(=O)(=O)NC[C@@H]1[C@H](F)CN1C(=O)[C@@H]1C[C@@]1(F)c1ccccc1-c1c(F)cccc1F [Example 393, N-({(2R,3R)-1-[(1S,2S)-2-(2′,6′-difluoro [1,1′-biphenyl]-2-yl)-2-fluorocyclopropane-1-carbonyl]-3-fluoroazetidin-2-yl}methyl)ethanesulfonamide] | 104 | 731.96 % of vehicle treatment |
